From ChEMBL document CHEMBL5338783, “Discovery of an Anti-TNF-α 9-mer Peptide from a T7 Phage Display Library for the Treatment of Inflammatory Bowel Disease” (J Med Chem, 2023) come the findings set out here.

The source made the active and inactive calls. The rule behind the calls is not given here. Peptide text beside a SMILES is read from it.

The target in the first experiment is T1, Tumor necrosis factor (Homo sapiens, UniProt P01375). The experiment can be described thus: Binding affinity to recombinant TNF-alpha (unknown origin) assessed as dissociation constant incubated for 10 mins by MST assay.
T1 sequence (P01375 whole entry): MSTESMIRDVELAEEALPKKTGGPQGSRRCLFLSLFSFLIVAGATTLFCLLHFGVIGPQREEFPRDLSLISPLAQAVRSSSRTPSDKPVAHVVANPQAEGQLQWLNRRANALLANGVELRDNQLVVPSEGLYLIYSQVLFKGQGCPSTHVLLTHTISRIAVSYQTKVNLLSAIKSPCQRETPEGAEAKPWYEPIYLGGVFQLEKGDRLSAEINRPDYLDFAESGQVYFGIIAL
Settings: not given
Consider `C[C@H](N)C(=O)N[C@@H](CS)C(=O)N[C@@H](C)C(=O)N[C@@H](C)C(=O)N[C@@H](Cc1c[nH]c2ccccc12)C(=O)N[C@@H](C)C(=O)N1CCC[C@H]1C(=O)N[C@H](C(=O)N[C@@H](CCCNC(=N)N)C(=O)O)[C@@H](C)O` (H-ACAAWAPTR-OH), for which the Kd was 230 µM.
Same read-out and setting: in the case of `C[C@H](N)C(=O)N[C@@H](CS)C(=O)N[C@@H](Cc1c[nH]cn1)C(=O)N[C@@H](C)C(=O)N[C@@H](C)C(=O)N[C@@H](C)C(=O)N1CCC[C@H]1C(=O)N[C@H](C(=O)N[C@@H](CCCNC(=N)N)C(=O)O)[C@@H](C)O` (H-ACHAAAPTR-OH) it was 563 µM; in that of `C[C@H](N)C(=O)N[C@@H](CS)C(=O)N[C@@H](Cc1c[nH]cn1)C(=O)N[C@@H](C)C(=O)N[C@@H](Cc1c[nH]c2ccccc12)C(=O)N[C@@H](C)C(=O)N[C@@H](C)C(=O)N[C@H](C(=O)N[C@@H](CCCNC(=N)N)C(=O)O)[C@@H](C)O` (H-ACHAWAATR-OH), 9.06 µM; in that of `C[C@H](N)C(=O)N[C@@H](CS)C(=O)N[C@@H](Cc1c[nH]cn1)C(=O)N[C@@H](C)C(=O)N[C@@H](Cc1c[nH]c2ccccc12)C(=O)N[C@@H](C)C(=O)N1CCC[C@H]1C(=O)N[C@@H](C)C(=O)N[C@@H](CCCNC(=N)N)C(=O)O` (H-ACHAWAPAR-OH), 18 µM.

In a further experiment the target is T1, Tumor necrosis factor. The experiment can be described thus: Binding affinity to recombinant TNF-alpha (unknown origin) at 488.3 to 500 uM incubated for 10 mins by MST assay. The note with it: dose 488.3-500 µM.
On to `CC[C@H](C)[C@H](NC(=O)[C@H](CCCCN)NC(=O)[C@H](CCCCN)NC(=O)[C@H](C)N)C(=O)N[C@H](C(=O)N[C@@H](CC(C)C)C(=O)N[C@@H](CCCNC(=N)N)C(=O)N[C@@H](CC(C)C)C(=O)N[C@@H](CO)C(=O)O)[C@@H](C)CC` (H-AKKIILRLS-OH), for which the outcome was inactive.
Still for that read-out and setting: then `CC[C@H](C)[C@H](NC(=O)CNC(=O)[C@H](CC(C)C)NC(=O)[C@H](CC(C)C)NC(=O)[C@H](CO)NC(=O)[C@H](CC(C)C)NC(=O)[C@@H](NC(=O)[C@H](CCC(N)=O)NC(=O)[C@@H](N)CC(N)=O)[C@@H](C)CC)C(=O)O` (H-NQILSLLGI-OH), with “inactive”.
